Reference: PMC10600239, “Selective MCL-1 inhibitor ABBV-467 is efficacious in tumor models but is associated with cardiac troponin increases in patients” (Communications Medicine, 2023)
“And” between values parts separate entries of the source, which are not always exact repeats. Equal entries are not always repeated. Where two headings read alike, the source gives them in different places.

Tests used:
[1] = test system: H929 cells; assay: In vitro cell viability assay (CellTiter-Glo); type: cell-based, human
Description: All cell lines were grown and treated in RPMI 1640 or Dulbecco’s modified Eagle medium (Sigma, St. Louis, MO) supplemented with 10% fetal bovine serum (Gibco) or 10% human serum (Sigma) and maintained in a humidified incubator at 5% CO2 and 37 °C. DLD-1, MV4-11, NCI-H929 (all ATCC, Manassas, VA, USA) and AMO-1 (DSMZ, Braunschweig, Germany) cells were plated 4000 cells per well in 384-well tissue culture plates and treated with compounds of interest for 24 h at 37 °C, 5% CO2 humidified incubator. Each concentration was tested in duplicate at least 3 separate times. Adherent cells were allowed to adhere overnight prior to treatment. Alternatively, AMO-1 or NCI-H929 cells were treated with ABBV-467 for the indicated contact times (1–24 h) at 37 °C in a 5% CO2 humidified incubator and washed 3 times with compound-free media prior to incubation for the remainder of a 24-h treatment period. Cell viability was subsequently determined using CellTiter-Glo (Promega, Madison, WI, USA) according to the manufacturer’s instructions.
For in vitro viability assays, mean EC50 and EC90 values were determined from the resulting dose-response curves from at least 3 independent experiments, and depict the mean ± standard error of the mean.
(§1) Fig. 2 Apoptosis induced by ABBV-467 is mechanism based and induces cell death in MCL-1-dependent cell lines after short target engagement periods. H929 cells were treated with ABBV-467 in the presence or absence of the pan-caspase inhibitor z-VAD-fmk (50 µM) and the impact on caspase-3/7 activation (a), mitochondrial membrane potential (ΔΨm; b), and apoptosis (c) determined. Alternatively, BAK-deficient SKBR3 cells were treated with ABBV-467 for 24 h and the impact on cell viability compared with the parental cell line, determined by CellTiter-Glo. Inset depicts a western blot of BAK and BAX expression in SKBR3 cell variants using GAPDH as a loading control. Each of the 3 proteins were probed on separate blots (d). Data in (a–d) are presented as the mean ± standard error of the mean. H929 and AMO-1 cells were treated with ABBV-467 at the indicated concentrations and the impact on caspase-3/7 activation and viability (DRAQ7-positive) cells determined over time by Incucyte®. Data are presented as the mean ± standard deviation (e). H929 or AMO-1 cells were cultured in media containing 10% human serum and treated with ABBV-467 for the indicated contact times. Cells were subsequently washed 3 times with drug-free media and incubated in drug-free media for the remainder of the 24-h treatment period at 37 °C before cell viability was determined by CellTiter-Glo. Mean EC50 and EC90 values were determined from the resulting dose-response curves from at least 3 independent experiments, each assessed in quadruplicate, and depict the mean ± standard error of the mean. Presented ABBV-467 dose-response curves in H929 and AMO-1 cells were compiled from at least 3 independent experiments (f).

[2] = test system: H929 cells; assay: Caspase-3/7 activation, Δψm and annexin-V positivity by flow cytometry; type: cell-based, human; design: MMP / H929 zVAD Fig 2C: unit not given here; settings: for Caspase-3/-7 Activation / MMP / H929 zVAD Fig 2C: H929; for Caspase-3/-7 Activation: Fig 2A; for MMP: Fig 2B
Description: H929 cells cultured in RPMI 1640 medium (Sigma, St. Louis, MO) supplemented with 10% fetal bovine serum (Gibco, Grand Island, NY) were pretreated with a pan-caspase inhibitor z-VAD-fmk (MP Biomedicals, Solon, OH; 50 µM) for 1 h before the addition of ABBV-467 for a further 6 h. Cells were then washed twice with Dulbecco’s phosphate-buffered saline and resuspended in staining buffer for determination of caspase-3/7 activation, Δψm, and annexin-V positivity using the Intellicyt MultiCyt 4-Plex Kit and high-content flow cytometry (Intellicyt, Albuquerque, NM).

[3] = test system: SKBR3 cells; assay: Cell viability of parental and BAK-, BAX-, BCL2L11-, PMAIP1-deficient SKBR3 cells (CellTiter-Glo); type: cell-based; settings: SKBR3, 24 h
Description: as §1
Supplementary Fig. S5: SKBR3 cells deficient in BAX, BAK , PM AIP 1 (gene encoding the protein NOXA),
BCL 2L 11 (gene encoding the protein BIM) were treated with ABBV-467 for 24 hours and the impact on
cell death compared to the parental cell line determined by CellTiter- Glo™.

Compound: Cc1c(Cl)c2c(Cl)c(C)c1-c1c(-c3ccc(F)cc3)sc3ncnc(c13)O[C@@H](C(=O)O)Cc1cc(ccc1OCc1ccnc(-c3ccc(OC[C@H]4COCCO4)cc3)n1)OC[C@@H](CN1CCN(C)CC1)O2 [ABBV-467]
- EC50 ([1]; Homo sapiens, NCI-H929, 10% human serum, contact time 1 hr, washout, viability at 24 h, read-out: H929 Mean EC50): 84.5 nM
- EC50 ([1]; Homo sapiens, NCI-H929, 10% human serum, contact time 2 hr, washout, viability at 24 h, read-out: H929 Mean EC50): 61.8 nM
- EC90 ([1]; Homo sapiens, NCI-H929, 10% human serum, contact time 2 hr, washout, viability at 24 h, read-out: H929 Mean EC90): 236 nM
- EC50 ([1]; Homo sapiens, NCI-H929, 10% human serum, contact time 4 hr, washout, viability at 24 h, read-out: H929 Mean EC50): 18.9 nM
- EC50 ([1]; Homo sapiens, NCI-H929, 10% human serum, contact time 6 hr, washout, viability at 24 h, read-out: H929 Mean EC50): 11.7 nM
- EC90 ([1]; Homo sapiens, NCI-H929, 10% human serum, contact time 6 hr, washout, viability at 24 h, read-out: H929 Mean EC90): 108 nM
- EC50 ([1]; Homo sapiens, NCI-H929, 24 h, 10% human serum, contact time 24 hr, read-out: H929 Mean EC50): 1.5 nM
- EC90 ([1]; Homo sapiens, NCI-H929, 24 h, 10% human serum, contact time 24 hr, read-out: H929 Mean EC90): 5.6 nM
- EC50 ([1]; Homo sapiens, NCI-H929, 24 h, read-out: H929 EC50 (nM, 10% FBS), 10% FBS, 24 h continuous treatment): 0.4 nM
- EC50 ([1]; Homo sapiens, NCI-H929, NCI-H929, arithmetic mean, read-out: Arithmetic Mean EC50 µM): 0.468 nM
- EC90 ([1]; Homo sapiens, NCI-H929, read-out: H929 Mean EC90, 10% human serum, contact time 1 hr, washout, viability at 24 h): 458 nM
- EC90 ([1]; Homo sapiens, NCI-H929, read-out: H929 Mean EC90, 10% human serum, contact time 4 hr, washout, viability at 24 h): 133 nM
- EC50 ([1]; NCI-H929, individual determinations, read-out: Individual EC50): 0.595 nM and 0.693 nM and 0.692 nM and 0.364 nM and 0.531 nM and 0.29 nM and 0.314 nM and 0.373 nM and 0.366 nM and 0.36 nM and 0.313 nM and 0.717 nM and 0.472 nM
- EC50 ([1]; read-out: H929 EC50 (nM, 10% FBS), 10% FBS, 24 h continuous treatment): 0.47 nM
- Caspase-3/-7 Activation ([2]; Log [ABBV-467] uM 0.045757): 53.8099 and 53.0567 and 99.0546 and 98.9774
- Caspase-3/-7 Activation ([2]; Log [ABBV-467] uM 0.522879): 56.0913 and 57.1822 and 99.1897 and 99.0858
- Caspase-3/-7 Activation ([2]; Log [ABBV-467] uM 1): 64.5099 and 63.3101 and 99.1237 and 99.059
- MMP ([2]; Log [ABBV-467] uM 1): 45.9293
- Caspase-3/-7 Activation ([2]; Log [ABBV-467] uM -0.43136): 50.714 and 51.6373 and 98.7601 and 98.6341
- MMP ([2]; Log [ABBV-467] uM -0.90849): 38.9227
- Caspase-3/-7 Activation ([2]; Log [ABBV-467] uM -1.86273): 33.5112 and 33.8695 and 61.3327 and 57.2365
- MMP ([2]; Log [ABBV-467] uM -1.86273): 31.9106 and 36.0956 and 42.4956 and 39.7476
- Caspase-3/-7 Activation ([2]; Log [ABBV-467] uM -2.33985): 30.5735 and 30.5502 and 33.1767 and 32.117
- MMP ([2]; Log [ABBV-467] uM -2.81697): 29.9048
- H929 zVAD Fig 2C ([2]; Vehicle, Log [ABBV-467] uM 0.522879): 78.4582 and 79.5333 and 93.9539 and 93.9739
- H929 zVAD Fig 2C ([2]; Vehicle, Log [ABBV-467] uM 1): 82.31 and 82.4987 and 93.6098 and 94.0208
- H929 zVAD Fig 2C ([2]; Vehicle, Log [ABBV-467] uM -0.90849): 61.8581 and 57.4223 and 88.7815 and 89.1451
- H929 zVAD Fig 2C ([2]; Vehicle, Log [ABBV-467] uM -1.86273): 33.1301 and 34.5804 and 48.8387 and 44.3698
- H929 zVAD Fig 2C ([2]; Vehicle, Log [ABBV-467] uM -2.81697): 10.2236
- H929 zVAD Fig 2C ([2]; z-VAD-fmk, Log [ABBV-467] uM 0.045757): 25.2697
- H929 zVAD Fig 2C ([2]; z-VAD-fmk, Log [ABBV-467] uM 1): 9.553 and 7.075
- H929 zVAD Fig 2C ([2]; z-VAD-fmk, Log [ABBV-467] uM -0.43136): 25.945
- H929 zVAD Fig 2C ([2]; z-VAD-fmk, Log [ABBV-467] uM -1.38561): 25.2659
- H929 zVAD Fig 2C ([2]; z-VAD-fmk, Log [ABBV-467] uM -1.86273): 25.2352
- H929 zVAD Fig 2C ([2]; z-VAD-fmk, Log [ABBV-467] uM -2.33985): 25.2036
- hallmarks of apoptosis induced ([2]; H929 cells, 6 h): dose-dependent loss in mitochondrial membrane potential, caspase-3/7 activation, and phosphatidyl serine externalization
- effect of pan-caspase inhibition with z-VAD-fmk on induced apoptosis ([2]; z-VAD-fmk 50 µM): abrogated
- effect of BAK deletion on activity [3]: completely inhibited
- effect of deletion of BAX, BIM or NOXA genes on activity [3]: did not impact activity
